Reference: patent US20230233569A1 (Revolution Medicines, Inc., priority 2020, published 2023)
Where two headings read alike, the source gives them in different places.

What was measured:
NCI-H358 (K-Ras G12C) = test: CellTiter-Glo cell viability assay, 5-day treatment; format: cell-based; conditions: Homo sapiens, NCI-H358, 120 h
Summary of the method: (§1)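 Seeded cells received test compound by direct dispensing. On day 5 the plates sat at room temperature approximately 30 minutes, then luminescence was measured. Data were normalized to DMSO and curve-fitted with four parameters.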

Capan-1 (K-Ras G12V) = test: as above; format: cell-based; conditions: Homo sapiens, CAPAN-1, 120 h
Summary of the method: as §1

KRAS G13C = KRAS G13C (Homo sapiens, UniProt P01116+P62937, G13C); test: Disruption of BRAF RBD interaction with Ras (FRET / MOA assay, with Cyclophilin A); format: biochemical
Sequence of KRAS G13C (P01116 1-169 isoform P01116-2 G13C): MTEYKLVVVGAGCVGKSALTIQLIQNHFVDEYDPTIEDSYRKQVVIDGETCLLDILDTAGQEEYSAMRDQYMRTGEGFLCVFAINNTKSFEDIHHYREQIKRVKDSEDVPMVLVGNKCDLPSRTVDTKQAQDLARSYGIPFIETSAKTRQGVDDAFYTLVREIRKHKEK
Sequence of KRAS G13C (P62937 whole entry): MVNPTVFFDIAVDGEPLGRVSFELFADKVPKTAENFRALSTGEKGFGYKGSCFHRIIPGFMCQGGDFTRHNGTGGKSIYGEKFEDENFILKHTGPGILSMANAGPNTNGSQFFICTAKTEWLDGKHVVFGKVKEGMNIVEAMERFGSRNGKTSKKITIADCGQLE
Summary of the method: (§2)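 TR-FRET readout: a drop in ratio relative to DMSO wells marks disruption of the K-Ras:BRAF RBD complex via compound-induced K-Ras–Cyclophilin A ternary complex. Dosing used ten 3-fold steps from 30 μM final, 3 h at 25 °C, then Eu-anti-His 10 nM plus APC-anti-GST 50 nM for another 1.5 h. Values are IC50s.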

KRAS G12C = KRAS G12C (Homo sapiens, UniProt P01116+P62937, G12C); test: as above; format: biochemical
Sequence of KRAS G12C (P01116 1-169 isoform P01116-2 G12C): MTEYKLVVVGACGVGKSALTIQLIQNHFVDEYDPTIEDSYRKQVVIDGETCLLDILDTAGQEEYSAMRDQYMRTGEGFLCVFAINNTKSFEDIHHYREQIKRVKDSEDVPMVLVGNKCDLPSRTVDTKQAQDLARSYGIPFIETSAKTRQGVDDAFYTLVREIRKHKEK
Sequence of KRAS G12C (P62937 whole entry): as the sequence (P62937 whole entry) above
Summary of the method: as §2

KRAS WT = KRAS WT (Homo sapiens, UniProt P01116+P62937); test: as above; format: biochemical
Sequence of KRAS WT (P01116 1-169 isoform P01116-2 limits assumed): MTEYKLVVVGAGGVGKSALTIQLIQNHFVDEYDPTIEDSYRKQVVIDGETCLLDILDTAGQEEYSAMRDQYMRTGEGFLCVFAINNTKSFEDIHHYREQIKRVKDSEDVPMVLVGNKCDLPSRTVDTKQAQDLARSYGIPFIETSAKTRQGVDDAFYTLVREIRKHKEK
Sequence of KRAS WT (P62937 whole entry): as the sequence (P62937 whole entry) above
Summary of the method: as §2

NRAS G12C = NRAS G12C (Homo sapiens, UniProt P01111+P62937, G12C); test: as above; format: biochemical
Sequence of NRAS G12C (P01111 whole entry G12C): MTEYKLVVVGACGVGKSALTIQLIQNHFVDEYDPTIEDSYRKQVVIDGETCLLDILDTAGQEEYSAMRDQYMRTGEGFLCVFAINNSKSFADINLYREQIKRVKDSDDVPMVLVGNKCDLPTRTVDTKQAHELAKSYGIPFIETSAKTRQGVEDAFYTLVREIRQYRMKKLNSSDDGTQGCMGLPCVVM
Sequence of NRAS G12C (P62937 whole entry): as the sequence (P62937 whole entry) above

KRAS G13D = KRAS G13D (Homo sapiens, UniProt P01116+P62937, G13D); test: as above; format: biochemical
Sequence of KRAS G13D (P01116 1-169 isoform P01116-2 G13D limits assumed): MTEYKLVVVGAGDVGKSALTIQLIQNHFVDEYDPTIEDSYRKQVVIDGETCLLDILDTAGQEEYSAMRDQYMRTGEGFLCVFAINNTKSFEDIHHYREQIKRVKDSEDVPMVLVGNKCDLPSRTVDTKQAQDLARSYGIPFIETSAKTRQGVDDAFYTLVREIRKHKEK
Sequence of KRAS G13D (P62937 whole entry): as the sequence (P62937 whole entry) above
Summary of the method: as §2

KRAS G12V = KRAS G12V (Homo sapiens, UniProt P01116+P62937, G12V); test: as above; format: biochemical
Sequence of KRAS G12V (P01116 1-169 isoform P01116-2 G12V limits assumed): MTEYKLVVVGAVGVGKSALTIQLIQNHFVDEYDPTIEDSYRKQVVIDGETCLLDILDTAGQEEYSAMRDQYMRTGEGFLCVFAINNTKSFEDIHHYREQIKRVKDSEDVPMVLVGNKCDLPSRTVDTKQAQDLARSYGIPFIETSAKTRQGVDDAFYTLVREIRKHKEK
Sequence of KRAS G12V (P62937 whole entry): as the sequence (P62937 whole entry) above
Summary of the method: as §2

KRAS G12S = KRAS G12S (Homo sapiens, UniProt P01116+P62937, G12S); test: as above; format: biochemical
Sequence of KRAS G12S (P01116 1-169 isoform P01116-2 G12S limits assumed): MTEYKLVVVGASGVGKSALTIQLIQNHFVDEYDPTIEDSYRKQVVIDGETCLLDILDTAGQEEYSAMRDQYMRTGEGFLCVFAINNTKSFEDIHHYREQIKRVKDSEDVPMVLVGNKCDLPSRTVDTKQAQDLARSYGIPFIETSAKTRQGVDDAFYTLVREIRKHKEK
Sequence of KRAS G12S (P62937 whole entry): as the sequence (P62937 whole entry) above
Summary of the method: as §2

KRAS G12D = KRAS G12D (Homo sapiens, UniProt P01116+P62937, G12D); test: as above; format: biochemical
Sequence of KRAS G12D (P01116 1-169 isoform P01116-2 G12D limits assumed): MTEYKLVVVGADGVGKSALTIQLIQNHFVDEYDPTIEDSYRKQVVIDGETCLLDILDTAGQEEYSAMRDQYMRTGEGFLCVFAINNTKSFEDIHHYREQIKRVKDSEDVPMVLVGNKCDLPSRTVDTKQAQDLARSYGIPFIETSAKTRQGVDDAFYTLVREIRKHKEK
Sequence of KRAS G12D (P62937 whole entry): as the sequence (P62937 whole entry) above
Summary of the method: as §2

[1] = 5-day treatment, read-out: H358 Cell Viability assay data (K-Ras G12C, IC50)
[2] = 5-day treatment, read-out: Capan-1 Cell Viability assay data (K-Ras G12V, IC50)
[3] = KRAS WT FRET data IC50, KRAS WT
[4] = NRAS G12C FRET data IC50, NRAS G12C
[5] = KRAS G13D FRET data IC50, KRAS G13D
[6] = KRAS G12V FRET data IC50, KRAS G12V
[7] = read-out: KRAS G13C FRET data, IC50
[8] = read-out: KRAS G12C FRET data, IC50
[9] = KRAS WT, read-out: KRAS WT FRET data IC50
[10] = NRAS G12C, read-out: NRAS G12C FRET data IC50
[11] = KRAS G13D, read-out: KRAS G13D FRET data IC50
[12] = KRAS G12V, read-out: KRAS G12V FRET data IC50
[13] = read-out: KRAS G12S FRET data, IC50
[14] = read-out: KRAS G12D FRET data, IC50

| SMILES | IC50 (NCI-H358 (K-Ras G12C); [1]) [µM] | IC50 (KRAS G13C; KRAS G13C FRET data, IC50) [µM] | IC50 (KRAS G12C; KRAS G12C FRET data, IC50) [µM] | IC50 (KRAS WT; [3]) [µM] | IC50 (NRAS G12C; [4]) [µM] | IC50 (KRAS G13D; [5]) [µM] | IC50 (KRAS G12V; [6]) [µM] | IC50 (KRAS G12S; KRAS G12S FRET data, IC50) [µM] | IC50 (KRAS G12D; KRAS G12D FRET data, IC50) [µM] | IC50 (KRAS G13C; [7]) [µM] | IC50 (KRAS G12C; [8]) [µM] | IC50 (KRAS WT; [9]) [µM] | IC50 (NRAS G12C; [10]) [µM] | IC50 (KRAS G13D; [11]) [µM] | IC50 (KRAS G12V; [12]) [µM] | IC50 (KRAS G12S; [13]) [µM] | IC50 (KRAS G12D; [14]) [µM] | IC50 (Capan-1 (K-Ras G12V); [2]) [µM] | IC50 (NCI-H358 (K-Ras G12C); read-out: H358 Cell Viability assay data (K-Ras G12C, IC50, uM), 5-day treatment) [µM] | IC50 (Capan-1 (K-Ras G12V); read-out: Capan-1 Cell Viability assay data (K-Ras G12V, IC50, uM)) [µM] |
| --- | --- | --- | --- | --- | --- | --- | --- | --- | --- | --- | --- | --- | --- | --- | --- | --- | --- | --- | --- | --- |
| CCn1c(-c2cnccc2COC)c2c3cc(ccc31)-c1cc(O)cc(c1)C[C@H](NC(=O)[C@H](C(C)C)N(C)C(=O)CO)C(=O)N1CCC[C@H](N1)C(=O)OCC(C)(C)C2 [Example A43, (2S)—N-[(8S,14S)-22-ethyl-4-hydroxy-21-[4-(methoxymethyl)pyridin-3-yl]-18,18-dimethyl-9,15-dioxo-16-oxa-10,22,28-triazapentacyclo[18.5.2.1^2,6.1^10,14.0^23,27]nonacosa-1(26),2,4,6(29),20,23(27),24-heptaen-8-yl]-2-(2-hydroxy-N-methylacetamido)-3-methylbutanamide] | 1 to 10 | 0.1 to 1 | 0.1 to 1 | 0.1 to 1 | 0.1 to 1 | 0.1 to 1 | 0.1 to 1 | 0.1 to 1 | 1 to 10 | – | – | – | – | – | – | – | – | 1 to 10 | – | – |
| CCn1c(-c2cnccc2COC)c2c3cc(ccc31)-c1cc(O)cc(c1)C[C@H](NC(=O)[C@H](C(C)C)N(C)C(=O)[C@@H]1NC[C@@H]3C[C@@H]31)C(=O)N1CCC[C@H](N1)C(=O)OCC(C)(C)C2 [Example A78] | – | 0.01 to 0.1 | 0.1 to 1 | 0.1 to 1 | 0.1 to 1 | 0.1 to 1 | 0.1 to 1 | 0.1 to 1 | 0.1 to 1 | – | – | – | – | – | – | – | – | – | 0.1 to 1 | 1 to 10 |
| CCn1c(-c2cnccc2COC)c2c3cc(ccc31)-c1cc(O)cc(c1)C[C@H](NC(=O)[C@H](C(C)C)N(C)C(=O)[C@H]1CCCO1)C(=O)N1CCC[C@H](N1)C(=O)OCC(C)(C)C2 [Example A90] | 0.1 to 1 | 0.1 to 1 | 0.1 to 1 | 0.1 to 1 | 0.1 to 1 | 0.1 to 1 | 0.1 to 1 | 0.1 to 1 | 1 to 10 | – | – | – | – | – | – | – | – | 0.1 to 1 | – | – |
| CCn1c(-c2cnccc2COC)c2c3cc(ccc31)-c1cc(O)cc(c1)C[C@H](NC(=O)[C@H](C(C)C)N(C)C(=O)[C@@H]1CCCO1)C(=O)N1CCC[C@H](N1)C(=O)OCC(C)(C)C2 [Example A91] | 0.1 to 1 | – | – | – | – | – | – | – | – | 0.1 to 1 | 0.1 to 1 | 0.1 to 1 | 0.1 to 1 | 1 to 10 | 0.1 to 1 | 0.1 to 1 | 1 to 10 | 0.1 to 1 | – | – |
| CCn1c(-c2cnccc2COC)c2c3cc(ccc31)-c1cc(O)cc(c1)C[C@H](NC(=O)[C@H](C(C)C)N(C)C(=O)[C@@H]1CCOC1)C(=O)N1CCC[C@H](N1)C(=O)OCC(C)(C)C2 [Example A94] | 0.1 to 1 | – | – | – | – | – | – | – | – | 0.1 to 1 | 0.1 to 1 | 0.1 to 1 | 0.1 to 1 | 0.1 to 1 | 0.1 to 1 | 0.1 to 1 | 1 to 10 | 0.1 to 1 | – | – |

Further lines, with some results ahead:

| IC50 (NCI-H358 (K-Ras G12C); [1]) [µM] | IC50 (KRAS G13C; KRAS G13C FRET data, IC50) [µM] | IC50 (KRAS G12C; KRAS G12C FRET data, IC50) [µM] | IC50 (KRAS WT; [3]) [µM] | IC50 (NRAS G12C; [4]) [µM] | IC50 (KRAS G13D; [5]) [µM] | IC50 (KRAS G12V; [6]) [µM] | IC50 (KRAS G12S; KRAS G12S FRET data, IC50) [µM] | IC50 (KRAS G12D; KRAS G12D FRET data, IC50) [µM] | IC50 (KRAS G13C; [7]) [µM] | IC50 (KRAS G12C; [8]) [µM] | IC50 (KRAS WT; [9]) [µM] | IC50 (NRAS G12C; [10]) [µM] | IC50 (KRAS G13D; [11]) [µM] | IC50 (KRAS G12V; [12]) [µM] | IC50 (KRAS G12S; [13]) [µM] | IC50 (KRAS G12D; [14]) [µM] | SMILES | IC50 (Capan-1 (K-Ras G12V); [2]) [µM] | IC50 (NCI-H358 (K-Ras G12C); read-out: H358 Cell Viability assay data (K-Ras G12C, IC50, uM), 5-day treatment) [µM] | IC50 (Capan-1 (K-Ras G12V); read-out: Capan-1 Cell Viability assay data (K-Ras G12V, IC50, uM)) [µM] |
| --- | --- | --- | --- | --- | --- | --- | --- | --- | --- | --- | --- | --- | --- | --- | --- | --- | --- | --- | --- | --- |
| > 10 | 0.1 to 1 | 0.1 to 1 | 0.1 to 1 | 1 to 10 | 0.1 to 1 | 1 to 10 | 0.1 to 1 | 1 to 10 | – | – | – | – | – | – | – | – | CCn1c(-c2cnccc2COC)c2c3cc(ccc31)-c1cc(O)cc(c1)C[C@H](NC(=O)[C@H](C(C)C)N(C)C(=O)C1CCN(C)CC1)C(=O)N1CCC[C@H](N1)C(=O)OCC(C)(C)C2 [Example A84] | > 10 | – | – |
| 0.1 to 1 | – | – | – | – | – | – | – | – | 0.01 to 0.1 | 0.01 to 0.1 | 0.01 to 0.1 | 0.01 to 0.1 | 0.01 to 0.1 | 0.01 to 0.1 | 0.01 to 0.1 | 0.01 to 0.1 | CCn1c(-c2cccnc2[C@H](C)OC)c2c3cc(ccc31)-c1cc(O)cc(c1)C[C@H](NC(=O)[C@H](C(C)C)N(C)C(=O)[C@H]1CCN(C(=O)CN(C)C)C1)C(=O)N1CCC[C@H](N1)C(=O)OCC(C)(C)C2 [Example A95] | 0.1 to 1 | – | – |
| 0.1 to 1 | – | – | – | – | – | – | – | – | 0.01 to 0.1 | 0.01 to 0.1 | 0.01 to 0.1 | 0.01 to 0.1 | 0.01 to 0.1 | 0.1 to 1 | 0.01 to 0.1 | 0.01 to 0.1 | CCn1c(-c2cccnc2[C@H](C)OC)c2c3cc(ccc31)-c1cc(O)cc(c1)C[C@H](NC(=O)[C@H](C(C)C)N(C)C(=O)[C@H]1CCN(C)C1)C(=O)N1CCC[C@H](N1)C(=O)OCC(C)(C)C2 [Example A100] | 1 to 10 | – | – |
